Measured values: patent publication US12673022B2, “Drug delivery system using solution” (Kyoto University, priority 2018, dated 2026)

Columns and labels:
[1] = tested on: EGFP reporter cells (C2C12 cells); assay: EGFP-SSA assay: uptake of Cas9 protein/gRNA complex into cells (EGFP positive rate); type: cell-based, mouse; settings: Example 1; for Compound activity: EGFP positive rate (%): reaction solution 1 (550 mM sodium chloride, 1 mM HEPES, Cas9 protein/gRNA), 30 minutes
[2] = tested on: EGFP reporter cells (C2C12 cells); assay: Number of HOECHST cells detected (cell viability) in the EGFP-SSA assay; settings: Example 1, formula (2)
Method: To each of the solutions, a complex of gRNA and Cas9 protein was further dissolved. Mouse myoblasts (C2C12 cells) were contacted with each of the solutions in vitro, and target gene cleavage activity and cell viability were evaluated.

[3] = compound 500.0 mM vs 250 mM GABA positive control on the same plate
[4] = compound 200.0 mM vs 250 mM GABA positive control on the same plate
[5] = compound 125.0 mM vs 250 mM GABA positive control on the same plate

CC(O)CCO (stereo not shown) [1,3-Butylene glycol]
Compound activity: EGFP positive rate (%) ([1]; compound 0.69 mM): 3.62% | Relative ratio to GABA: Number of HOECHST cells ([2]; compound 0.69 mM vs 250 mM GABA positive control on the same plate): 1.03

CNC(=O)NC [1,3-Dimethylurea]
Compound activity: EGFP positive rate (%) ([1]; compound 500.0 mM): 2.64% | Relative ratio to GABA: Number of HOECHST cells [2, 3]: 0.68

O=c1ccn([C@H]2C[C@H](O)[C@@H](CO)O2)c(=O)[nH]1 [2′-Deoxyuridine]
Compound activity: EGFP positive rate (%) ([1]; compound 100.0 mM): 1.10% | Relative ratio to GABA: Number of HOECHST cells ([2]; compound 100.0 mM vs 250 mM GABA positive control on the same plate): 0.88

O=C(O)[C@@H]1CC(O)CN1 (stereo partly shown) [4-Hydroxyproline]
Compound activity: EGFP positive rate (%) ([1]; compound 500.0 mM): 35.82% | Relative ratio to GABA: Number of HOECHST cells [2, 3]: 0.62

CC(C)(CO)[C@@H](O)C(=O)NCCC(=O)O [Calcium pantothenate]
Compound activity: EGFP positive rate (%) ([1]; compound 160.0 mM): 0.25% | Relative ratio to GABA: Number of HOECHST cells ([2]; compound 160.0 mM vs 250 mM GABA positive control on the same plate): 1.50

CN1CC(=O)NC1=N [Creatinine]
Relative ratio to GABA: EGFP positive rate (%) ([1]; compound 200.0 mM vs 250 mM GABA positive control on the same plate, formula (1)): 2.50 | Compound activity: EGFP positive rate (%) ([1]; compound 200.0 mM): 2.27% | Relative ratio to GABA: Number of HOECHST cells [2, 4]: 0.84

Nc1ccn([C@@H]2O[C@H](CO)[C@@H](O)[C@H]2O)c(=O)n1 [Cytidine]
Compound activity: EGFP positive rate (%) ([1]; compound 125.0 mM): 2.24% | Relative ratio to GABA: Number of HOECHST cells [2, 5]: 1.58

Nc1cc[nH]c(=O)n1 [Cytosine]
Compound activity: EGFP positive rate (%) ([1]; compound 25.0 mM): 0.61% | Relative ratio to GABA: Number of HOECHST cells ([2]; compound 25.0 mM vs 250 mM GABA positive control on the same plate): 0.77

OC[C@H]1O[C@@H](O[C@H]2[C@H](O)[C@@H](O)[C@H](O)O[C@@H]2CO)[C@H](O)[C@@H](O)[C@@H]1O [D(+)-cellobiose]
Compound activity: EGFP positive rate (%) ([1]; compound 200.0 mM): 1.18% | Relative ratio to GABA: Number of HOECHST cells [2, 4]: 1.00

NCCC(=O)N[C@@H](Cc1cnc[nH]1)C(=O)O [L-Carnosine]
Compound activity: EGFP positive rate (%) ([1]; compound 125.0 mM): 1.76% | Relative ratio to GABA: Number of HOECHST cells [2, 5]: 0.98

OCCN1C[C@H](O)[C@@H](O)[C@H](O)[C@H]1CO [Miglitol]
Compound activity: EGFP positive rate (%) ([1]; compound 125.0 mM): 1.55% | Relative ratio to GABA: Number of HOECHST cells [2, 5]: 0.83

CC(C)C(=O)C(=O)O [Sodium 3-methyl-2-oxobutate]
Compound activity: EGFP positive rate (%) ([1]; compound 200.0 mM): 1.71% | Relative ratio to GABA: Number of HOECHST cells [2, 4]: 0.53
